The record followed here is patent US9394549B2, “Method for producing useful chemical substance from terephthalic acid potassium salt” (GENARIS, INC., priority 2012, dated 2016).

Series [1] concerns gallic acid-producing Escherichia coli strain M7032 (pUXPEaLT_HFM145_tphA2A3BA1_tpaK). Kind of series: Production of gallic acid from terephthalic acid salt in jar fermentor culture. Format: cell-based. To be noted: for Gallic acid: 0.6 M salt solution as raw material, 48 hours after the start of the main culture; for Ratio of the capacity in production (gallic acid): 48 hours, disodium terephthalate as 100%. Here is the method:
A gallic acid plasmid pUXPEaLT_HFM145_tphA2A3BA1_tpaK constructed in Reference Example 2 was introduced into Escherichia coli M7032 strain by a transformation method to obtain a gallic acid-producing Escherichia coli strain M7032 (pUXPEaLT_HFM145_tphA2A3BA1_tpaK). Subsequently, in the same manner as described in Example 2, the preculture of this gallic acid-producing bacterium was prepared and then merely 2% of this preculture was inoculated in a main culture medium to carry out main culture in the above condition. When the bacterial cell turbidity reached about 7 at an absorbance of 600 nm, an inducer m-toluic acid was added such that the final concentration thereof came to 1 mM to express terephthalate 1,2-dioxygenase protein, terephthalate 1,2-dioxygenase reductase protein, terephthalate dihydrodiol dehydrogenase protein, terephthalic acid transporter protein and improved para-hydroxybenzoate hydroxylase. The glucose concentration was measured with time. When the glucose concentration reached 0, the glucose and substrate mixed solution was administered.
Sampling was carried out 48 hours after the start of the main culture. Each of the samples was subjected to analysis by an LC-TOF type mass spectrometer (Waters Corporation, LCT Premier XE). Identification of gallic acid and protocatechuic acid was carried out with a combination of retention time of high performance liquid chromatography and an accurate mass value from the mass spectrometer, comparing to a standard sample of terephthalic acid and gallic acid.

For series [2], the system named is protocatechuic acid-producing Escherichia coli strain M7032 (pUXPEaLT_tphA2A3BA1_tpaK). Description: Production of protocatechuic acid from terephthalic acid salt in jar fermentor culture. Format: cell-based. To be noted: for Ratio of the capacity in production (protocatechuic acid): disodium terephthalate as 100%. Here is the method: A protocatechuic acid-producing plasmid pUXPEaLT_tphA2A3BA1_tpaK constructed in Reference Example 2 was introduced into Escherichia coli M7032 strain by a transformation method to obtain a protocatechuic acid-producing Escherichia coli strain M7032 (pUXPEaLT_tphA2A3BA1_tpaK).
Subsequently, in the same manner as described in Example 2, the preculture of the present protocatechuic acid-producing bacterium was prepared and then merely 2% of such a preculture was inoculated in a main culture medium to carry out main culture. When the bacterial cell turbidity reached about 7 at an absorbance of 600 nm, an inducer m-toluic acid was added such that the final concentration thereof came to 1 mM to express terephthalate 1,2-dioxygenase protein, terephthalate 1,2-dioxygenase reductase protein, terephthalate dihydrodiol dehydrogenase protein, and terephthalic acid transporter protein. The glucose concentration was measured with time. When the glucose concentration reached 0, the glucose and substrate mixed solution was administered.
Sampling was carried out 48 hours after the start of the main culture. Each of the samples was subjected to analysis by an LC-TOF type mass spectrometer (Waters Corporation, LCT Premier XE). Identification of terephthalic acid and protocatechuic acid was carried out with a combination of retention time of high performance liquid chromatography and an accurate mass value from the mass spectrometer, comparing to a standard sample of terephthalic acid and protocatechuic acid.
(§1) Using the protocatechuic acid-producing Escherichia coli strain M7032 (pUXPEaLT_tphA2A3BA1_tpaK) created in Reference Example 2, in the same manner as described in Example 2, the preculture of the present protocatechuic acid-producing bacteria was prepared and then merely 2% of such a preculture was inoculated in a main culture medium to carry out main culture. When the bacterial cell turbidity reached about 7 at an absorbance of 600 nm, an inducer m-toluic acid was added such that the final concentration thereof came to 1 mM to express terephthalate 1,2-dioxygenase protein, terephthalate 1,2-dioxygenase reductase protein, terephthalate dihydrodiol dehydrogenase protein, and terephthalic acid transporter protein. The glucose concentration was measured with time. When the glucose concentration reached 0, the terephthalic acid salt derived from PET, which was prepared in Example 6, was dissolved such that the concentration thereof was 0.6M, mixed with glucose, and administered to a culture device.
Sampling was carried out 52 hours after the start of the main culture. Each of the samples was subjected to analysis by an LC-TOF type mass spectrometer (Waters Corporation, LCT Premier XE). Identification of terephthalic acid and protocatechuic acid was carried out with a combination of retention time of high performance liquid chromatography and an accurate mass value from the mass spectrometer, comparing to a standard sample of terephthalic acid and protocatechuic acid.
as §1, with “acid-producing bacterium” for “acid-producing bacteria”, “time. […]” for “time. When the glucose concentration reached 0, the terephthalic acid salt derived from PET, which was prepared in Example 6, was dissolved such that the concentration thereof was 0.6M, mixed with glucose, and administered to a culture device.”

Series [3] is described as follows: Solubility of terephthalic acid salts in ethylene glycol. Format: physicochemical. To be noted: for concentration of terephthalate in saturated ethylene glycol solvent: heated at 100° C. for 60 minutes, cooled to 30° C. or less, filtered; for solubility: organic solvent or mixture, same method as Example 1. Here is the method:
4.15 g of terephthalic acid (0.025 mol) was placed in a 200 mL glass beaker and then 0.050 mol of potassium hydroxide (in a form of granule), 0.050 mol of sodium hydroxide (in a form of granule), or 0.025 mol of potassium hydroxide, and 0.025 mol of sodium hydroxide were placed thereto. Ethylene glycol was filled to obtain a volume of about 100 mL. The resulting mixture was covered with aluminum foil as a lid, heated at 100° C. for 60 minutes while stirred by a hot stirrer, and allowed to cool to 30° C. or less. These solutions were filtered with a filter paper (Grade 540 manufactured by Whatman) to obtain an ethylene glycol solvent saturated with the terephthalate.
The concentration of each of the terephthalates contained in such a solvent was 0.23 M in a dipotassium terephthalate saturated solution, 0.11 M in a disodium terephthalate saturated solution, and 0.20 M in a 1-potassium 4-sodium terephthalate saturated solution.

Series [4] is described as follows: Solubility of terephthalic acid salts in 1-butanol. In kind it is physicochemical. To be noted: organic solvent or mixture, same manner as Example 1. An excerpt: As just seen above, it was found out that, unlike the dissolution in ethylene glycol, the dissolution in 1-butanol was very poor.
Setting [5] is: 0.6 M salt solution as raw material, 48 hours after the start of the main culture.
The mark [6] stands for this setting: salt obtained by depolymerization of PBT (Example 8), 0.6M, 48 hours.
The mark [7] stands for this setting: salt obtained by depolymerization of PET (Example 6), 0.6M, 52 hours.

As for `N.O=C([O-])c1ccc(C(=O)O)cc1.[K+]` [1-potassium 4-ammonium terephthalate], in series [1], the Gallic acid was determined as 8.5 g/L and the “Ratio of the capacity in production (gallic acid)” value (shortened to “Ratio … (gallic acid)”) worked out at 112%. Further, the Protocatechuic acid in series [2] (setting [5]) worked out at 7.1 g/L. In addition, the “Ratio of the capacity in production (protocatechuic acid)” value (from here on “Ratio … (protocatechuic acid)”) in series [2] (48 hours) was 142%.

As for `O=C([O-])c1ccc(C(=O)[O-])cc1.[K+].[Na+]` [1-potassium 4-sodium terephthalate], the “solubility in ethylene glycol” value in series [3] worked out at 205 mM. Moreover, the Gallic acid in series [1] stood at 8.4 g/L. For the same compound, the “Ratio … (gallic acid)” value in series [1] is listed as 111%. Also, the Protocatechuic acid in series [2] (setting [5]) was 7.7 g/L; in series [2] (setting [6]), 11.0 g/L; in series [2] (setting [7]) it was 11.1 g/L. The “Ratio … (protocatechuic acid)” value came out at 154% in series [2] (48 hours); 108% in series [2] (salt from PBT, 48 hours); 108% in series [2] (salt from PET, 52 hours).

The solubility is the dissolved amount per volume that the medium holds. For `O=C([O-])c1ccc(C(=O)[O-])cc1.[K+].[K+]` [Dipotassium terephthalate, dipotassium terephthalate], the results for the solubility in series [4] and in series [3] were 0.2 mM and 231 mM, respectively. In addition, the “concentration of terephthalate in saturated ethylene glycol solvent” value in series [3] worked out at 0.23 M. For the same compound, the Gallic acid in series [1] is listed as 8.6 g/L. Moreover, the “Ratio … (gallic acid)” value in series [1] was determined as 113%. The results for the Protocatechuic acid in series [2] (setting [5]), in series [2] (setting [6]) and in series [2] (setting [7]) were 8.3 g/L, 11.6 g/L and 11.5 g/L, respectively. In addition, the “Ratio … (protocatechuic acid)” value in series [2] (48 hours) was 166%; in series [2] (salt from PBT, 48 hours) it was 114%; in series [2] (salt from PET, 52 hours), 113%.

Consider `O=C([O-])c1ccc(C(=O)[O-])cc1.[Na+].[Na+]` [Disodium terephthalate, disodium terephthalate, reference compound], for which the values for the solubility in series [4] and in series [3] were 1.9 mM and 109 mM, respectively. Moreover, the “concentration of terephthalate in saturated ethylene glycol solvent” value in series [3] is reported as 0.11 M. In series [1], the Gallic acid came out at 7.6 g/L. In addition, the “Ratio … (gallic acid)” value in series [1] is 100%. Also, the Protocatechuic acid turned out to be 5.0 g/L in series [2] (setting [5]), 10.2 g/L in series [2] (setting [6]) and 10.2 g/L in series [2] (setting [7]). Moreover, the “Ratio … (protocatechuic acid)” value turned out to be 100% in series [2] (48 hours); 100% in series [2] (salt from PBT, 48 hours); 100% in series [2] (salt from PET, 52 hours).
